In one experiment the target is T1, Recombinant mouse CD38 (Mus musculus, UniProt P56528).
T1 sequence (P56528 1-304): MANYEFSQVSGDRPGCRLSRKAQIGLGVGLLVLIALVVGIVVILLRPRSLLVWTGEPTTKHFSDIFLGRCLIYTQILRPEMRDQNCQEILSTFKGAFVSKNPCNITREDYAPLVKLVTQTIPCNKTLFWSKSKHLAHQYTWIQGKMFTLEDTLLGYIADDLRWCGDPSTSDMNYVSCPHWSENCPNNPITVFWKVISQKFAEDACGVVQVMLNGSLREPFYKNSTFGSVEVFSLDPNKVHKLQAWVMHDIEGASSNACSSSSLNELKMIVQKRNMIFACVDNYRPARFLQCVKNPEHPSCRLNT
Kind of experiment: Mouse CD38 hydrolase assay (fluorescence-based, ε-NAD substrate). It counts as biochemical. Conditions: recombinant mouse CD38 0.4 nM, 12 μM ε-NAD, 30 min preincubation at 25° C. The protocol: The ability of test compounds to inhibit mouse CD38 hydrolase activity was measured in a fluorescence-based assay using non-physiological NAD^+ substrate analogue 1,N^6-etheno NAD^+ (&-NAD). Recombinant mouse CD38 (0.4 nM) was preincubated with test compounds in 384-well black microplates for 30 min at 25° C. in PBS (—Ca^2+/Mg^2+) containing 0.005% BSA (pH 7.4). CD38 hydrolase activity was initiated by addition of 12 μM ε-NAD, which yields the fluorescent product 1,N^6-etheno ADP-ribose. Formation of fluorescent product was followed using ClarioStar Plus (BMG) microplate reader by reading fluorescence (excitation λ=300 nm; emission λ=410 nm) at two time points, one immediately after substrate addition (t=0) and one at 6 min (t=6).
Data was analysed by subtracting the values detected at t=0 from t=6 to correct for variation in baseline fluorescence. Fluorescence values were converted to percent inhibition using the average of high signal (CD38 and ε-NAD) and low signal (CD38 and ε-NAD in the presence of a tool CD38 inhibitor) control wells. IC50 values were determined from a 10-point, halflog concentration response curve with a four-parameter logistic equation.

For another experiment, the target named is T2, Recombinant human CD38 (Homo sapiens, UniProt P28907).
T2 sequence (P28907 1-300): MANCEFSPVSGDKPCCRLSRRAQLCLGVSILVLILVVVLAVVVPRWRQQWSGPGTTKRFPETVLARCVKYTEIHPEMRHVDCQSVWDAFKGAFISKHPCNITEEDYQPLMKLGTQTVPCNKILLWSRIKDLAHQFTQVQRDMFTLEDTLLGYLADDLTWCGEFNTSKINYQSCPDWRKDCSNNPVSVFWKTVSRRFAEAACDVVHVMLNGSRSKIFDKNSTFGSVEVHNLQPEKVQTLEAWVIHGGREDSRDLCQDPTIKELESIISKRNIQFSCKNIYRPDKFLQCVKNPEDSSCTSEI
Kind of experiment: Human CD38 hydrolase assay (fluorescence-based, ε-NAD substrate). It counts as biochemical. The following applies: recombinant human CD38 0.8 nM, 4 μM ε-NAD, 30 min preincubation at 25° C. As for the experimental part:
The ability of test compounds to inhibit human CD38 hydrolase activity was measured in a fluorescence-based assay using non-physiological NAD^+ substrate analogue 1,N^6-etheno NAD^+ (ε-NAD). Recombinant human CD38 (0.8 nM) was preincubated with test compounds in 384-well black microplates for 30 min at 25° C. in PBS (—Ca^2+/Mg^2+) containing 0.005% BSA (pH 7.4). CD38 hydrolase activity was initiated by addition of 4 μM ε-NAD, which yields the fluorescent product 1,N^6-etheno ADP-ribose. Formation of fluorescent product was followed using ClarioStar Plus (BMG) microplate reader by reading fluorescence (excitation λ=300 nm; emission λ=410 nm) at two time points, one immediately after substrate addition (t=0) and one at 10 min (t=10). Data was analysed by subtracting the values detected at t=0 from t=10 to correct for variation in baseline fluorescence. Fluorescence values were converted to percent inhibition using the average of high signal (CD38 and ε-NAD) and low signal (CD38 and ε-NAD in the presence of a tool CD38 inhibitor) control wells. IC50 values were determined from a 10-point, half log concentration response curve with a four-parameter logistic equation.

As for `O=C(NC1CCN(CC(F)(F)F)CC1)c1cn2ncnc2c(-n2ccnc2)n1` [Example 50, 8-(1H-imidazol-1-yl)-N-(1-(2,2,2-trifluoroethyl)piperidin-4-yl)-[1,2,4]triazolo[1,5-a]pyrazine-6-carboxamide], the figures for the IC50 on Recombinant mouse CD38 and at Recombinant human CD38 were no more than 100 nM and no more than 1000 nM, respectively.

In the case of `O=C(N[C@H]1CC[C@H](N2CC[C@H](O)C2)CC1)c1nc(-n2ccnc2)nn2cccc12` [Example 23, N-((1S,4r)-4-((S)-3-hydroxypyrrolidin-1-yl)cyclohexyl)-2-(1H-imidazol-1-yl)pyrrolo[2,1-f][1,2,4]triazine-4-carboxamide], the IC50 on Recombinant mouse CD38 and at Recombinant human CD38 was no more than 40 nM each time.

On to `CN(CC(F)(F)F)[C@H]1CC[C@H](NC(=O)c2cn3ncnc3c(-n3ccnc3)n2)CC1` [Example 47, 8-(1H-imidazol-1-yl)-N-((1r,4r)-4-(methyl (2,2,2-trifluoroethyl)amino)cyclohexyl)-[1,2,4]triazolo[1,5-a]pyrazine-6-carboxamide], for which the values for the IC50 at Recombinant mouse CD38 and at Recombinant human CD38 were no more than 40 nM and no more than 100 nM, respectively.

For `O=C(N[C@H]1CC[C@H](NCC(F)(F)F)CC1)c1nc(-n2ccnc2)cc2nccn12` [Example 2, 7-(1H-imidazol-1-yl)-N-((1r,4r)-4-((2,2,2-trifluoroethyl)amino)cyclohexyl) imidazo[1,2-c]pyrimidine-5-carboxamide], the IC50 on Recombinant mouse CD38 and at Recombinant human CD38 was no more than 40 nM throughout.

As for `O=C(N[C@H]1CC[C@H](NCC(F)F)CC1)c1cn2ncnc2c(-n2ccnc2)n1` [Example 52, N-((1r,4r)-4-((2,2-difluoroethyl)amino)cyclohexyl)-8-(1H-imidazol-1-yl)-[1,2,4]triazolo[1,5-a]pyrazine-6-carboxamide], the IC50 on Recombinant mouse CD38 is no more than 40 nM; on Recombinant human CD38, no more than 100 nM.

Consider `O=C(N[C@H]1CC[C@H](NCC(F)(F)F)CC1)c1nc(-n2ccnc2)cn2ncnc12` [Example 59, 6-(1H-imidazol-1-yl)-N-((1r,4r)-4-((2,2,2-trifluoroethyl)amino)cyclohexyl)-[1,2,4]triazolo[1,5-a]pyrazine-8-carboxamide], for which the IC50 on Recombinant mouse CD38 and at Recombinant human CD38 was no more than 40 nM each time.

For `Cc1cncn1-c1nc(C(=O)N[C@H]2CC[C@H](NCC(F)(F)F)CC2)c2cccn2n1` [Example 42, 2-(5-methyl-1H-imidazol-1-yl)-N-((1r,4r)-4-((2,2,2-trifluoroethyl)amino)cyclohexyl)pyrrolo[2,1-f][1,2,4]triazine-4-carboxamide], the IC50 at Recombinant mouse CD38 and on Recombinant human CD38 was no more than 40 nM throughout.

As usually defined, the IC50 is the concentration at which inhibition is half-maximal.

For the origin of these results see patent publication US20260224582A1, “Heterobicyclic amides as inhibitors of CD38” (Cerevance, Inc., priority 2022, published 2026).
